Laboratory results: patent EP1401829B1, “NOVEL HETEROCYCLIC ANTIBACTERIAL COMPOUNDS” (Microbiotix, Inc., priority 2001, dated 2002)
Values after ≈ are worked out from the molar mass of the structure shown. Marks after values point to notes of the source that are not given here.

Assays:
MSSA108 = experiment: MIC against clinically relevant strains; format: cell-based; conditions: Staphylococcus aureus; methicillin sensitive S. aureus strain
[1] = tested on: Staphylococcus aureus (Smith strain); experiment: Protection of mice from lethal intraperitoneal infection, compound given intraperitoneally; format: in vivo; conditions: Swiss Webster mice, groups of five, 15 minutes after infection
Experimental: • Figures 1A and 1B. Figure 1A is a diagram of the structural formula for Compound 2 (i.e., 3-{4-[1-(1-cyclopropyl-3-carboxy-4-oxo-6-fluoro-7-quinolyl)-4-piperazinyl]butyl}-6-(3-ethyl- 4-methylanilino)uracil). • Figure 1B is a bar graph showing number of survivors in each group of five mice at 24 hours after intraperitoneal infection with 1 x 10^8 colony forming units (CFU) of Staphylococcus aureus (Smith strain) and followed 15 minutes post infection by administration of Compound 2 at a dose of 0 (Vehicle Control), 1, 3, and 10 mg of compound per kg of body weight. Vancomycin at a dose of 10 mg/kg of body weight served as a positive control for antibiotic activity. See text for details. • Figures 2A and 2B. Figure 2A is a diagram of the structural formula for Compound 10 (i.e., 3-{4-[1-(1-cyclopropyl-3-carboxy-4-oxo-6-fluoro-7-quinolyl)-4-piperazinyl]butyl}-6-(3-ethyl-4-methylanilino)uracil methanesulfonate). • Figure 2B is a bar graph showing number of survivors of a group of five mice at 24 hours after intraperitoneal infection with Staphylococcus aureus (Smith strain) as in Figure 1B, except that Compound 10 was administered to each animal at 0, 0.1, 0.3, 1.0, 3.0, and 10 mg/kg body weight at 15 minutes post infection. Controls were the same as in Figure 1B. See text for details. • Figures 3A and 3B. […] Abbreviations: cPr is cyclopropyl; Et is ethyl; dFPh is 2,4-difluorophenyl. • Figure 3B is a bar graph showing number of survivors in each group of five mice at 24 hours after intraperitoneal infection with Staphylococcus aureus (Smith strain) as in Figure 1, except that 15 minutes after infection, the mice in each group received a dose of 0.5 mg/kg of body weight of compound 10, 4, 5, 6, 7, 8, or 12. Controls were the same as in Figure 1. See text for details.
(§1) Swiss Webster mice, ca. 20 g each, were infected with Staphylococcus aureus (Smith strain) by the intraperitoneal route. Test compounds (2, 4, 5, 6, 7, 8, 10, 12) were dissolved in 10% dimethylsulfoxide in peanut oil to a concentration of 2 mg/ml. Vancomycin was used as positive control drug (i.e., protection from lethal infection). Fifteen minutes after infection, test compounds, vancomycin, or vehicle alone were given intraperitoneally to groups of five mice each. Animals were monitored for three days, and the number of mice surviving was tabulated for each treatment.

MRSA 1094 = experiment: In vivo efficacy of Compound 70 in mouse models; set-up: species or system Staphylococcus aureus; conditions: mice, 10^7 CFU/mouse + 5% Mucin, regimen 2 (t=0,2)
Experimental: as §1
(§2) Using the same basic procedure as described above, the in vivo efficacy of Compound 70 was also evaluated at various doses in mice infected with S. aureaus (Smith), MRSA 1094, Enterococcus faecalis, or vancomycin-resistant Enterococcus faecalis strain VRE 700802. […] Negative controls were mice infected that received no treatment. Mucin was employed as an adjuvant to facilitate bacterial infection in mice, where indicated.

[2] = Overt toxicity observed in mouse infection models; format: in vivo; conditions: mice; at therapeutic doses (doses providing survival above no treatment control)
Experimental: as §2

VRE 700802 = experiment: In vivo efficacy of Compound 70 in mouse models; set-up: species or system Enterococcus faecalis; conditions: mice, 3x10^8 CFU/mouse + 5% Mucin
Experimental: as §1, §2

[3] = dosage range 1-10 mg/kg body weight intraperitoneally
[4] = dose 50 mg/kg, regimen 2 (t=0,2)
[5] = dose 50 mg/kg, regimen 2 (t=0,3)
[6] = dose 75 mg/kg, regimen 2 (t=0,2-)
[7] = dose 75 mg/kg, regimen 2 (t=0,3)
[8] = dose 100 mg/kg, regimen 1 (t=0)

Structure (SMILES)	MIC (MSSA108)	protection of infected mice (number of survivors) [1, 3]	protection of infected mice (number of survivors) ([1]; 0.3 mg per kg body weight intraperitoneally)	protection of infected mice (number of survivors) ([1]; 1 mg/kg or higher intraperitoneally)	% Survival at 72 hours (MRSA 1094; dose 25 mg/kg)	% Survival at 72 hours (MRSA 1094; dose 50 mg/kg)	% Survival at 72 hours (MRSA 1094; dose 75 mg/kg)	overt toxicity [2]	% Survival at 72 hours (VRE 700802; [4])	Mean Survival Time (VRE 700802; [4])	% Survival at 72 hours (VRE 700802; [5])	Mean Survival Time (VRE 700802; [5])	% Survival at 72 hours (VRE 700802; [6])	Mean Survival Time (VRE 700802; [6])	% Survival at 72 hours (VRE 700802; [7])	Mean Survival Time (VRE 700802; [7])	% Survival at 72 hours (VRE 700802; [8])	Mean Survival Time (VRE 700802; [8])
CCc1cc(Nc2cc(=O)n(CCCCN3CCN(c4cc5c(cc4F)c(=O)c(C(=O)O)cn5C4CC4)CC3)c(=O)[nH]2)ccc1C [Compound 2, 3-{4-[1-(1-cyclopropyl-3-carboxy-4-oxo-6-fluoro-7-quinolyl)-4-piperazinyl]butyl}-6-(3-ethyl-4-methylanilino)uracil]	0.313 µg/mL (≈ 0.496 µM)	all five	–	–	–	–	–	–	–	–	–	–	–	–	–	–	–	–
CCc1cc(Nc2cc(=O)n(CCCCN3CCN(c4cc5c(cc4F)c(=O)c(C(=O)O)cn5C4CC4)CC3)c(=O)[nH]2)ccc1C.CS(=O)(=O)O [Compound 10, 3-{4-[1-(1-cyclopropyl-3-carboxy-4-oxo-6-fluoro-7-quinolyl)-4-piperazinyl]butyl}-6-(3-ethyl-4-methylanilino)uracil methanesulfonate]	0.625 µg/mL	provided protection in the same dosage range as Compound 2	one of five	complete protection	–	–	–	–	–	–	–	–	–	–	–	–	–	–
CCc1cc(Nc2cc(=O)n(CCCCN3CCN(c4c(F)cc5c(=O)c(C(=O)O)cn(C6CC6)c5c4F)CC3C)c(=O)[nH]2)ccc1C (centres unmarked) [Compound 70, 3-{4-[1-(1-cyclopropyl-3-carboxy-4-oxo-6,8-difluoro-7-quinolyl)-3-methyl-4-piperazinyl]butyl}-6-(3-ethyl-4-methylanilino)uracil]	–	–	–	–	0% (0/5)	55% (11/20)*	80% (4/5)	no overt toxicity	10% (1/10)	45 h	0% (0/5)	35 h	0% (0/5)	50 h	40% (2/5)	50 h	0% (0/5)	34 h
